Experimental data reported in patent US11957687B2 (REGENERON PHARMACEUTICALS, INC., priority 2019, dated 2024).

Target: HSD17B13 (Homo sapiens (Human), UniProt Q7Z5P4)
Test: HSD17B13 enzymatic inhibition assay (150 nM or 50 nM HSD17B13)
Type: biochemical
Conditions: 50 nM HSD17B13; read-out: Inhibition of 50 nM of HSD17B13 IC50

HSD17B13, sequence (Q7Z5P4 other isoform, or with tags, fused parts or gaps): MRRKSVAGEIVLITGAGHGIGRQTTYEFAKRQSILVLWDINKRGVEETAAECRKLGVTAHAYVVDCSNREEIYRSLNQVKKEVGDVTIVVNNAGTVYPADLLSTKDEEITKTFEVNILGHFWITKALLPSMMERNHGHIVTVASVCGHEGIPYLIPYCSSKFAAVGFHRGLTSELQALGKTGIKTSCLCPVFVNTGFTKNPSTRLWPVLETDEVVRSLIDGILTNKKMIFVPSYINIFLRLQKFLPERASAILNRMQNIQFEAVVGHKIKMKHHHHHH

| Compound | IC50 [nM] |
| --- | --- |
| CCC[C@@H]1C[C@H](NC(=O)c2ccc(C(F)(F)F)[nH]c2=O)C[C@H](CCC)O1 [Compound 303, N-((2R,4R,6S)-2,6-dipropyltetrahydro-2H-pyran-4-yl)-2-oxo-6-(trifluoromethyl)-1,2-dihydropyridine-3-carboxamide] | 3060 |
| Cc1ccc2c(c1)[C@H](N)CC[C@H]2NC(=O)c1ccc(C(F)(F)F)[nH]c1=O [Compound 304, N-((1R,4R)-4-amino-6-methyl-1,2,3,4-tetrahydronaphthalen-1-yl)-2-oxo-6-(trifluoromethyl)-1,2-dihydropyridine-3-carboxamide] | > 10000 |
| Cc1ccc2sc(C)c(NC(=O)c3ccc(C(F)(F)F)[nH]c3=O)c2c1 [Compound 310, N-(2,5-dimethylbenzo[b]thiophen-3-yl)-2-oxo-6-(trifluoromethyl)-1,2-dihydropyridine-3-carboxamide] | 680 |
| O=C(NC1CN(CCOCc2ccccc2)Cc2ccccc21)c1ccc(C(F)(F)F)[nH]c1=O (stereo not shown) [Compound 315, N-(2-(2-(benzyloxy)ethyl)-1,2,3,4-tetrahydroisoquinolin-4-yl)-2-oxo-6-(trifluoromethyl)-1,2-dihydropyridine-3-carboxamide] | 960 |
| CC(C)(C)OC(=O)N1Cc2ccccc2C(NC(=O)c2ccc(C(F)(F)F)[nH]c2=O)C1 (stereo not shown) [Compound 317, tert-butyl 4-(2-oxo-6-(trifluoromethyl)-1,2-dihydropyridine-3-carboxamido)-3,4-dihydroisoquinoline-2(1H)-carboxylate] | 4030 |
| O=C(NC1c2ccncc2Oc2ccc(O)cc21)c1ccc(C(F)(F)F)[nH]c1=O (stereo not shown) [Compound 318, N-(7-hydroxy-5H-chromeno[2,3-c]pyridin-5-yl)-2-oxo-6-(trifluoromethyl)-1,2-dihydropyridine-3-carboxamide] | 7250 |
| COc1ccc2c(c1)C(NC(=O)c1ccc(C(F)(F)F)[nH]c1=O)c1ccncc1O2 (stereo not shown) [Compound 319, N-(7-methoxy-5H-chromeno[2,3-c]pyridin-5-yl)-2-oxo-6-(trifluoromethyl)-1,2-dihydropyridine-3-carboxamide] | 830 |
| O=C(NC1c2ccncc2Oc2cc(O)ccc21)c1ccc(C(F)(F)F)[nH]c1=O (stereo not shown) [Compound 320, N-(8-hydroxy-5H-chromeno[2,3-c]pyridin-5-yl)-2-oxo-6-(trifluoromethyl)-1,2-dihydropyridine-3-carboxamide] | 600 |
| Cc1cc2c(cn1)C(NC(=O)c1ccc(C(F)(F)F)[nH]c1=O)c1ccccc1O2 (stereo not shown) [Compound 325, N-(3-methyl-10H-chromeno[3,2-c]pyridin-10-yl)-2-oxo-6-(trifluoromethyl)-1,2-dihydropyridine-3-carboxamide] | 180 |
| Cc1ccc2c(c1)Oc1cccnc1C2NC(=O)c1ccc(C(F)(F)F)[nH]c1=O (stereo not shown) [Compound 326, N-(7-methyl-10H-chromeno[3,2-b]pyridin-10-yl)-2-oxo-6-(trifluoromethyl)-1,2-dihydropyridine-3-carboxamide] | 60 |
| O=C(NC1c2ccccc2Oc2cccnc21)c1ccc(C(F)(F)F)[nH]c1=O (stereo not shown) [Compound 331, N-(10H-chromeno[3,2-b]pyridin-10-yl)-2-oxo-6-(trifluoromethyl)-1,2-dihydropyridine-3-carboxamide] | 600 |
| O=C(NC1c2ccccc2Oc2ccncc21)c1ccc(C(F)(F)F)[nH]c1=O (stereo not shown) [Compound 332, N-(10H-chromeno[3,2-c]pyridin-10-yl)-2-oxo-6-(trifluoromethyl)-1,2-dihydropyridine-3-carboxamide] | 1290 |
| O=C(NC1c2ccccc2Oc2cnccc21)c1ccc(C(F)(F)F)[nH]c1=O (stereo not shown) [Compound 333, N-(5H-chromeno[2,3-c]pyridin-5-yl)-2-oxo-6-(trifluoromethyl)-1,2-dihydropyridine-3-carboxamide] | 740 |
| O=C(NC1c2ccccc2Oc2ncccc21)c1ccc(C(F)(F)F)[nH]c1=O (stereo not shown) [Compound 334, N-(5H-chromeno[2,3-b]pyridin-5-yl)-2-oxo-6-(trifluoromethyl)-1,2-dihydropyridine-3-carboxamide] | 2390 |
| O=C(NC1CCCc2c(CCc3ccccc3)cccc21)c1ccc(C(F)(F)F)[nH]c1=O (stereo not shown) [Compound 335, 2-oxo-N-(5-phenethyl-1,2,3,4-tetrahydronaphthalen-1-yl)-6-(trifluoromethyl)-1,2-dihydropyridine-3-carboxamide] | 4470 |
| CCN1CCC(NC(=O)c2ccc(C(F)(F)F)[nH]c2=O)c2ccc(C)cc21 (stereo not shown) [Compound 336, N-(1-ethyl-7-methyl-1,2,3,4-tetrahydroquinolin-4-yl)-2-oxo-6-(trifluoromethyl)-1,2-dihydropyridine-3-carboxamide] | 5790 |
| Cc1ccc2c(c1)N(C)CCC2NC(=O)c1ccc(C(F)(F)F)[nH]c1=O (stereo not shown) [Compound 338, N-(1,7-dimethyl-1,2,3,4-tetrahydroquinolin-4-yl)-2-oxo-6-(trifluoromethyl)-1,2-dihydropyridine-3-carboxamide] | 4260 |

The remaining lines, values ahead:

| IC50 [nM] | Compound |
| --- | --- |
| 7850 | Cc1ccc2c(c1)[C@@H](N)CC[C@H]2NC(=O)c1ccc(C(F)(F)F)[nH]c1=O [Compound 305, N-((1R,4S)-4-amino-6-methyl-1,2,3,4-tetrahydronaphthalen-1-yl)-2-oxo-6-(trifluoromethyl)-1,2-dihydropyridine-3-carboxamide] |
| > 10000 | NCc1cccc2c1CCCC2NC(=O)c1ccc(C(F)(F)F)[nH]c1=O (stereo not shown) [Compound 313, N-(5-(aminomethyl)-1,2,3,4-tetrahydronaphthalen-1-yl)-2-oxo-6-(trifluoromethyl)-1,2-dihydropyridine-3-carboxamide] |
| 5520 | CC(C)(C)OC(=O)NCCN1Cc2ccccc2C(NC(=O)c2ccc(C(F)(F)F)[nH]c2=O)C1 (stereo not shown) [Compound 314, tert-butyl (2-(4-(2-oxo-6-(trifluoromethyl)-1,2-dihydropyridine-3-carboxamido)-3,4-dihydroisoquinolin-2(1H)-yl)ethyl)carbamate] |
| 5960 | Cc1ccc2c(c1)N(CCOCc1ccccc1)CCC2NC(=O)c1ccc(C(F)(F)F)[nH]c1=O (stereo not shown) [Compound 316, N-(1-(2-(benzyloxy)ethyl)-7-methyl-1,2,3,4-tetrahydroquinolin-4-yl)-2-oxo-6-(trifluoromethyl)-1,2-dihydropyridine-3-carboxamide] |
| 300 | COc1ccc2c(c1)Oc1cccnc1C2NC(=O)c1ccc(C(F)(F)F)[nH]c1=O (stereo not shown) [Compound 322, N-(7-methoxy-10H-chromeno[3,2-b]pyridin-10-yl)-2-oxo-6-(trifluoromethyl)-1,2-dihydropyridine-3-carboxamide] |
| 1680 | Cc1cccc2c1C(NC(=O)c1ccc(C(F)(F)F)[nH]c1=O)c1cnccc1O2 (stereo not shown) [Compound 329, N-(9-methyl-10H-chromeno[3,2-c]pyridin-10-yl)-2-oxo-6-(trifluoromethyl)-1,2-dihydropyridine-3-carboxamide] |
| 4190 | CCCN1CCC(NC(=O)c2ccc(C(F)(F)F)[nH]c2=O)c2ccc(C)cc21 (stereo not shown) [Compound 337, N-(7-methyl-1-propyl-1,2,3,4-tetrahydroquinolin-4-yl)-2-oxo-6-(trifluoromethyl)-1,2-dihydropyridine-3-carboxamide] |
| 2820 | Cc1ccc2c(c1)C(NC(=O)c1ccc(C(F)(F)F)[nH]c1=O)CCN2 (stereo not shown) [Compound 339, N-(6-methyl-1,2,3,4-tetrahydroquinolin-4-yl)-2-oxo-6-(trifluoromethyl)-1,2-dihydropyridine-3-carboxamide] |
